Results from patent US20110250243A1, “NANOPARTICLE COMPOSITIONS” (priority 2008, published 2011).

Assay: Encapsulation of coumarin-6 in PEC nanoparticles by solvent displacement
Assay type: physicochemical
Conditions: solvent displacement method
Protocol: Coumarin-6 is used (absorption: 485 nm, emission: 505-525 nm) as it allows to optically detect a potential phagocytosis process and furthermore, is a suitable model for a lipophilic agent. Due to its lipophilic characteristics and low water solubility, coumarin-6 can suitably be processed by the solvent displacement method, in order to achieve a high packaging rate. The encapsulation efficiency is very high and lies close to 100%. The preparation of the loaded nanoparticles is also performed using the modified solvent-displacement method as described in example 2. Coumarin-6 is used in a stock solution of 50 μg/ml in acetonitrile (the stock solution is stored in the refrigerator and protected by light e.g. by using aluminium foil) and the PEC 95 and 99 polymers as a 10 mg/ml stock solution in acetonitrile. All samples are set up in triplicate. For loading the nanoparticles the required amounts of PEC stock solution and coumarin-6 stock solution are mixed, filled up with acetonitrile up to 1.5 ml and vortexed (see table 2). This solution is then injected into the PVA solution according to the usual schema (see above).

- Encapsulation efficiency: ~100%
Compound: CCN(CC)c1ccc2cc(-c3nc4ccccc4s3)c(=O)oc2c1 [coumarin-6]
